What was measured:
[1] = biological target: Sodium-dependent dopamine transporter (Homo sapiens, UniProt Q01959); experiment: Inhibition of human recombinant dopamine transporter
[2] = biological target: Sodium-dependent serotonin transporter (Homo sapiens, UniProt P31645); experiment: Inhibition of human recombinant 5HT transporter
[3] = biological target: Sodium-dependent noradrenaline transporter (Homo sapiens, UniProt P23975); experiment: Inhibition of human recombinant norepinephrine transporter
[4] = Half life in mouse microsomes; format: ADME, Microsome
[5] = biological target: Cytochrome P450 2D6 (Homo sapiens, UniProt P10635); experiment: Inhibition of CYP2D6; format: ADME
[6] = Half life in human microsomes; format: ADME, Microsome
[7] = biological target: Cytochrome P450 3A4 (Homo sapiens, UniProt P08684); experiment: Inhibition of CYP3A4; format: ADME
[8] = Inhibition of CYP1A; format: ADME
[9] = biological target: Voltage-gated inwardly rectifying potassium channel KCNH2 (Homo sapiens, UniProt Q12809)
[10] = biological target: Cytochrome P450 2C19 (Homo sapiens, UniProt P33261); experiment: Inhibition of CYP2C19; format: ADME
[11] = biological target: Cytochrome P450 2C9 (Homo sapiens, UniProt P11712); experiment: Inhibition of CYP2C9; format: ADME
Chain of Cytochrome P450 2C9 (P11712 whole entry): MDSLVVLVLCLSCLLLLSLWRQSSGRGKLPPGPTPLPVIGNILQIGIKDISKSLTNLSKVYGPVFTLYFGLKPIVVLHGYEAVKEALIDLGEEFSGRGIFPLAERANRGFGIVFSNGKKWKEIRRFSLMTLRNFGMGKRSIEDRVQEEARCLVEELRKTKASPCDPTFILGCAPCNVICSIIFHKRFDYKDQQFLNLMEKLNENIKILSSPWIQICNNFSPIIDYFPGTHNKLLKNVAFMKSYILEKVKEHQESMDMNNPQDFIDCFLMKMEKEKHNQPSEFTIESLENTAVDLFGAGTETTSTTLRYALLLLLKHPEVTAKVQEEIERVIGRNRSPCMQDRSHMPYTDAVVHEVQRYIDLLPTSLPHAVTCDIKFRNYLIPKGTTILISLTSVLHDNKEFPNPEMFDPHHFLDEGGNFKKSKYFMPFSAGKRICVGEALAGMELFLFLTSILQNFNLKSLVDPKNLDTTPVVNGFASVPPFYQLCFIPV

Chain of Cytochrome P450 2D6 (P10635 whole entry): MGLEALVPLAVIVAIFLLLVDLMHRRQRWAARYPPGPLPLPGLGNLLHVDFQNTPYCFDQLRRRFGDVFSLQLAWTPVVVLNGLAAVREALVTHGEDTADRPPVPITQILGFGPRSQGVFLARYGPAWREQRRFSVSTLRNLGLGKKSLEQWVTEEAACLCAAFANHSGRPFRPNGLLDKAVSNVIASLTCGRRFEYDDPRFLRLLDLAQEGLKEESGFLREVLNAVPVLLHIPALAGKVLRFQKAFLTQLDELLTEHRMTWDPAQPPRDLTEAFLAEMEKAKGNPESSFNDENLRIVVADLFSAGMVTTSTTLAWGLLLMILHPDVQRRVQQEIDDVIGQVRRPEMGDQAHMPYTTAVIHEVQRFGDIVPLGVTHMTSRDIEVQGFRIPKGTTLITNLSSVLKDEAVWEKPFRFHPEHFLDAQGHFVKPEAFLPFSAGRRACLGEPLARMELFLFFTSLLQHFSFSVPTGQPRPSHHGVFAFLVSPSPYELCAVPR
Chain of Sodium-dependent serotonin transporter (P31645 whole entry): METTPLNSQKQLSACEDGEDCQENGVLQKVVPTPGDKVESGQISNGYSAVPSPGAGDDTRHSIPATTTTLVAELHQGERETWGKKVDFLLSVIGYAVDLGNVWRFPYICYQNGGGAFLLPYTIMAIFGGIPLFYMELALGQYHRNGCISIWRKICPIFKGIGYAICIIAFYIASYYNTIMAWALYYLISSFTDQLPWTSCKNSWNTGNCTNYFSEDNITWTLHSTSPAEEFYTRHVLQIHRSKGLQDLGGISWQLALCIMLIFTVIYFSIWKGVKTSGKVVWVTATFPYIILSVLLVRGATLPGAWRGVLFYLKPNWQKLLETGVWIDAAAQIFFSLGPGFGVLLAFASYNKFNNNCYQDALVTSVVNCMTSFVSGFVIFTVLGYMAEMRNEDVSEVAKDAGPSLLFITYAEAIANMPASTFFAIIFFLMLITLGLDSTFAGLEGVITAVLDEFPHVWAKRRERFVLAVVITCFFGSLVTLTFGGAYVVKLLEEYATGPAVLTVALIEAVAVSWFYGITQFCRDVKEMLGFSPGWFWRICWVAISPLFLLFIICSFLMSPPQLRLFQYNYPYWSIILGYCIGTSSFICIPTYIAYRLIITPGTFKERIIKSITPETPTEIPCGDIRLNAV
Chain of Voltage-gated inwardly rectifying potassium channel KCNH2 (Q12809 whole entry): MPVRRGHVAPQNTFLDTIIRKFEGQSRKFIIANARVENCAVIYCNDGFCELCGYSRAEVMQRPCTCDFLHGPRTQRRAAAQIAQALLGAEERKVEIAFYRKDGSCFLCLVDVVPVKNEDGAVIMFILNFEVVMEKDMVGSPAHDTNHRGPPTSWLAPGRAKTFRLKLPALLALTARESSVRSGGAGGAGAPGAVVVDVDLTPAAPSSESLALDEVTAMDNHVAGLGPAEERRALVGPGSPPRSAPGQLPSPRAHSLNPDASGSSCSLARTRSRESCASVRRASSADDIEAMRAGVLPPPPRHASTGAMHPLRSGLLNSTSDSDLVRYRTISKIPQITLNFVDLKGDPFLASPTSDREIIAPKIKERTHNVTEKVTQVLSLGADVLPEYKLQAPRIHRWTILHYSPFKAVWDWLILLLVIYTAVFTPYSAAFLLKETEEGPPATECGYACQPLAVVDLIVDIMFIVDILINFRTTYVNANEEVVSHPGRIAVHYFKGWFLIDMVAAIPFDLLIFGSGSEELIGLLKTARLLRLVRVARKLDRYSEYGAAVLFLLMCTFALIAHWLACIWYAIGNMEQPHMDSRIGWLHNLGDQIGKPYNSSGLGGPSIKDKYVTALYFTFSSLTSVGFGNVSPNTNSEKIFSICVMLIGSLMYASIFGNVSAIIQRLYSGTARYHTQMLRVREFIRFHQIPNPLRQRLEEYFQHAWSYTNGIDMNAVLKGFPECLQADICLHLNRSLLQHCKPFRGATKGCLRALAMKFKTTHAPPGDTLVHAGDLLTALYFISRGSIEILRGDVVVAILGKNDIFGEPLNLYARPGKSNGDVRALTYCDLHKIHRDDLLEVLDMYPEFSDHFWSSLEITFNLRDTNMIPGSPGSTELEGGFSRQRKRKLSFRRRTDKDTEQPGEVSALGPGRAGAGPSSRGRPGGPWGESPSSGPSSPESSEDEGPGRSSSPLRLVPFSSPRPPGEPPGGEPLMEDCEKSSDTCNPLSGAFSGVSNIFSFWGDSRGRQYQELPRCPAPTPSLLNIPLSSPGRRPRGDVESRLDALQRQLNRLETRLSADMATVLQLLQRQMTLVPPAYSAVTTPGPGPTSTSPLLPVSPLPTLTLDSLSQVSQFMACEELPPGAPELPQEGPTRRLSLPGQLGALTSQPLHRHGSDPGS
Chain of Cytochrome P450 3A4 (P08684 whole entry): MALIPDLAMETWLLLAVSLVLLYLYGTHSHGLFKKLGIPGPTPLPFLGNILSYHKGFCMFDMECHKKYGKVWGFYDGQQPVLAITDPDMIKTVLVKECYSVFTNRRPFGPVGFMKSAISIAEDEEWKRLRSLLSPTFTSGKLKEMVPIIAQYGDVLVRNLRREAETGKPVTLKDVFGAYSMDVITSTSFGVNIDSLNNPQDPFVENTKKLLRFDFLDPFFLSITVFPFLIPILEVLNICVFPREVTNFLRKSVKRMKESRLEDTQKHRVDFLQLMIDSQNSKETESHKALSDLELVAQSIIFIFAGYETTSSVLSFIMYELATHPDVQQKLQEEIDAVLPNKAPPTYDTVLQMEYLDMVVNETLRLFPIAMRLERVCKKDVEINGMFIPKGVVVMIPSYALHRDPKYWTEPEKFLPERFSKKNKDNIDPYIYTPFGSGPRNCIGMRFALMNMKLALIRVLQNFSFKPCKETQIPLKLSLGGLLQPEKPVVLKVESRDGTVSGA
Chain of Sodium-dependent noradrenaline transporter (P23975 whole entry): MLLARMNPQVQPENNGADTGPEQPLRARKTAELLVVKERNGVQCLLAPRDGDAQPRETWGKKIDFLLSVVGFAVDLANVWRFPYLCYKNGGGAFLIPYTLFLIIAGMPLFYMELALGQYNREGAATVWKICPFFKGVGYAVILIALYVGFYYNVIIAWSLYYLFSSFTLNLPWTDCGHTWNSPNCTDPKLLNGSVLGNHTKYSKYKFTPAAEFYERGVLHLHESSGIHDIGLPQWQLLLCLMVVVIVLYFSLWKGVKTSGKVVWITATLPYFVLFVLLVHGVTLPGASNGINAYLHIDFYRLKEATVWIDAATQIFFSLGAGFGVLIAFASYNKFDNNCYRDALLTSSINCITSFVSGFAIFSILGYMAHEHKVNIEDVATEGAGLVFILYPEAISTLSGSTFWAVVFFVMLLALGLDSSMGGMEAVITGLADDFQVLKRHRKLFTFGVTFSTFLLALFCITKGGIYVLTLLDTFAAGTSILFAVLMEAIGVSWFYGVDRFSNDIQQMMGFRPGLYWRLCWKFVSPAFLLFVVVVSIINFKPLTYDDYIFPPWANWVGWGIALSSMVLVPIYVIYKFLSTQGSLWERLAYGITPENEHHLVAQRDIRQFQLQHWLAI
Chain of Cytochrome P450 2C19 (P33261 whole entry): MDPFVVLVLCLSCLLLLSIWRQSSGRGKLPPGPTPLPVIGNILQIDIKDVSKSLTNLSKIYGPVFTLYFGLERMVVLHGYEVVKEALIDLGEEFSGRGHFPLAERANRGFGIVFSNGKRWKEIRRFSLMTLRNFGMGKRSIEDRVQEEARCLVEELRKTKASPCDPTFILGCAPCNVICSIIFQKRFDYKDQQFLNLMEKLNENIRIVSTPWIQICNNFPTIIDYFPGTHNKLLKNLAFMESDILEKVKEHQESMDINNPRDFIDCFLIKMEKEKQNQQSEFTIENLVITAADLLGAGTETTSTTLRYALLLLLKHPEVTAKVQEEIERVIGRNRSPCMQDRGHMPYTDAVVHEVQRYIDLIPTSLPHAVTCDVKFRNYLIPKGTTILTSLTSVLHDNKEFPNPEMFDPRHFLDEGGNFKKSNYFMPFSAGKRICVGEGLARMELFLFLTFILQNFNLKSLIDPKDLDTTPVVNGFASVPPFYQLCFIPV
Chain of Sodium-dependent dopamine transporter (Q01959 whole entry): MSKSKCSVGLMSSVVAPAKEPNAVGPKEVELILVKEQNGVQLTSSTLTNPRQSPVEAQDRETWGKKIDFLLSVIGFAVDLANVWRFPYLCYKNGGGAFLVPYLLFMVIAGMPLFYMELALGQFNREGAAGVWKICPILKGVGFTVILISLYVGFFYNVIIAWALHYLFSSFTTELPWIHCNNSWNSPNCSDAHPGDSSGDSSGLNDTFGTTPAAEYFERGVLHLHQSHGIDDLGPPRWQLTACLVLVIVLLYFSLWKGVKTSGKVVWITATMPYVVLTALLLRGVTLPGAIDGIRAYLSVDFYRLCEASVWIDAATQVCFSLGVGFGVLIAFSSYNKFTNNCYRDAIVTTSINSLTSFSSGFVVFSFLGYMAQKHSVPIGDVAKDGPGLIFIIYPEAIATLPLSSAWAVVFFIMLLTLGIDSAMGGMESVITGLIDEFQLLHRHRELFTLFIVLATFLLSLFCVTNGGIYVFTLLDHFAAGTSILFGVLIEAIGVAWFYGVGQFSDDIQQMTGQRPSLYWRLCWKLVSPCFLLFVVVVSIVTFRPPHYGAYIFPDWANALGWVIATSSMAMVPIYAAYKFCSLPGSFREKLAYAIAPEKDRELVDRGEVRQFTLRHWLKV

SMILES	IC50 [1] [µM]	IC50 [2] [µM]	IC50 [3] [µM]	half-life [4] [h]	IC50 [5] [µM]	half-life [6] [h]	IC50 [7] [µM]	IC50 [8] [µM]	IC50 [10] [µM]	IC50 [11] [µM]	IC50 [9] [µM]
NC1CCN(c2ccc(Cl)c(Cl)c2)c2ccccc21 (stereo unspecified)	0.246	0.65	0.926								
NC1Cc2ccccc2N(c2ccc(Cl)c(Cl)c2)C1 (stereo unspecified)	0.605	2.55	2.6								
CN(C)C1CCN(c2ccc(Cl)c(Cl)c2)c2ccccc21 (stereo unspecified)	5.03	0.003	7.14								
CN[C@H]1Cc2ccccc2[C@@H](c2ccc(Cl)c(Cl)c2)C1	0.072										
CNC1Cc2ccccc2N(c2ccc(Cl)c(Cl)c2)C1 (stereo unspecified)	0.177	0.985	1.01								
CN(C)C1Cc2ccccc2N(c2ccc(Cl)c(Cl)c2)C1 (stereo unspecified)	0.122	0.436	1.86								
N[C@H]1Cc2ccccc2N(c2ccc(Cl)c(Cl)c2)C1	0.465	2.4	1.85								
CN(C)[C@H]1Cc2ccccc2N(c2ccc(Cl)c(Cl)c2)C1	0.309	5.56	3.09								

Continued, in another order:

IC50 [1] [µM]	IC50 [2] [µM]	IC50 [3] [µM]	half-life [4] [h]	IC50 [5] [µM]	half-life [6] [h]	IC50 [7] [µM]	IC50 [8] [µM]	IC50 [10] [µM]	IC50 [11] [µM]	SMILES	IC50 [9] [µM]
0.1	0.128	1.25	0.333	0.1	3.95					CN[C@H]1Cc2ccccc2N(c2ccc(Cl)c(Cl)c2)C1	
0.039	0.02	0.934	0.367	3	3.32	> 25	> 25	14.1	> 25	CNC1CCN(c2ccc(Cl)c(Cl)c2)c2ccccc21 (stereo unspecified)	7.8
0.016	0.007	1.18	0.005	6.02	> 5	> 25	> 25	> 25	0.25	CN(C)[C@@H]1CCN(c2ccc(Cl)c(Cl)c2)c2ccccc21	
0.008	0.132	0.601	> 5	1.5	> 5	> 25	> 25	19	> 25	CN[C@@H]1CCN(c2ccc(Cl)c(Cl)c2)c2ccccc21	3.25
0.012	0.116	0.138	3.35	4.87	> 5	> 25	> 25	> 25	> 25	N[C@@H]1CCN(c2ccc(Cl)c(Cl)c2)c2ccccc21	3.5
